# Source: patent US8058243B2, “Method for treating a brain cancer with ifenprodil” (HSC Research and Development Limited Partnership, priority 2006, dated 2011)
# Counter-ions that a name gives are not always drawn. Like-named read-outs stand apart in the source and are kept apart here.
# Columns and labels:
# [1] = system: mouse NSC neurosphere cultures; experiment: Dose-response curves and EC50, neurosphere MTT proliferation, 7 days; type: cell-based
# [2] = system: murine neural precursor cells (neurosphere cultures); experiment: HTS of LOPAC library against secondary neurosphere cultures, MTT proliferation assay at 3 μM, day 7 (z score, P value); type: cell-based, mouse
# [3] = system: ptc1+/− medulloblastoma precursor cells (neurosphere cultures); experiment: Medulloblastoma tumor sphere MTT proliferation EC50; type: cell-based, mouse
# Source text: (§1) Astrocyte Screen and Neurosphere Selectivity Assessment. […] Murine Medulloblastoma Generation and Culture. […] Flow Cytometry. […] Results
# [4] = system: Ptch1+/− Trp53−/− medulloblastoma neurosphere cultures; experiment: Tumor sphere MTT proliferation EC50; type: cell-based, mouse; settings: cultures derived from mouse cerebellar tumor samples; read-out: Ptch1+/− Trp53−/− neurosphere EC50
# Source text: as §1
# [5] = Table 8, read-out: Neurosphere EC50
# [6] = LOPAC library screen, 3 μM, MTT, secondary neurosphere cultures, day 7
# [7] = LOPAC primary screen, neurosphere MTT proliferation, 3 μM, day 7
# [8] = yes = significantly inhibited neurosphere proliferation (P<0.01) in the primary screen
# [9] = Mus musculus, read-out: EC 50% Neurosphere, Table 5
# [10] = Mus musculus, Table 8, read-out: Neurosphere EC50
# [11] = LOPAC library screen, 3 μM, MTT, neurosphere cultures
# [12] = primary LOPAC screen, 3 μM, MTT, neurosphere proliferation
# [13] = yes/no: significantly inhibited neurosphere proliferation in the primary screen
# [14] = yes/no: significantly inhibited neurosphere proliferation in primary screen
# [15] = LOPAC screen, neurosphere MTT proliferation, 3 μM, day 7
# [16] = yes/no: significantly inhibited neurosphere proliferation (P<0.01) in primary screen
# [17] = LOPAC library screen at 3 μM, secondary neurosphere cultures, MTT
compound,measurement,setting,value
"CN1CCN(c2nc3cc(C(F)(F)F)ccc3n3cccc23)CC1.O=C(O)/C=C\C(=O)O [CGS-12066A (40), reference compound]",EC50,[1]; [5],2010 nM
same,EC50,"[1]; read-out: EC 50% Neurosphere, Table 5",2010 nM
same,Z Score,[2]; [6],−2.575
same,Z score,[2]; [7],−2.575
same,Activity,[2]; [8],yes
"COc1ccc(CCNC[C@H](O)c2ccc(O)cc2)cc1OC [R(−)-Denopamine (24), R(−)-Denopamine]",EC50,[1]; [5],39200 nM
"CC(C)(C)[C@]1(O)CCN2C[C@H]3c4ccccc4CCc4cccc(c43)[C@@H]2C1 (racemic) [(±) Butaclamol (4), (±)-Butaclamol]",EC50,"[3]; Mus musculus, ptc1+/− medulloblastoma derived neurospheres, read-out: Medulloblastoma Neurosphere EC50",751 nM
same,EC50,"[3]; cultures derived from mouse cerebellar tumor samples, read-out: Ptch1+/− neurosphere EC50",751 nM
same,EC50,"[1]; 168 h, normal mouse neurosphere cultures, MTT, 7 days, read-out: Neurosphere EC50",785 nM
same,EC50,[1]; [9],785 nM
same,EC50,[1]; [10],785 nM
same,EC50,[4],2530 nM
same,Activity,[2],yes
same,Z score,"[2]; 168 h, 3 µM",−5.934
"CC(C)COCC(CN(Cc1ccccc1)c1ccccc1)N1CCCC1 (stereo not shown) [Bepridil (28), Bepridil, reference compound]",EC50,[1]; [9],2700 nM
same,EC50,[1]; [10],2700 nM
same,Z Score,[2]; [6],−2.655
same,Z score,[2]; [7],−2.655
same,Activity,[2]; [8],yes
"c1ccc2c(c1)[I+]c1ccccc1-2 [Diphenyleneiodonium (33), Diphenyleneiodonium, reference compound]",EC50,[1]; [9],11 nM
same,EC50,[1]; [10],11 nM
same,Z Score,[2]; [6],−10.07
same,Z score,[2]; [7],−10.068
same,Activity,[2]; [8],yes
Cc1ccc(S(=O)(=O)NC(=O)NN2CCCCCC2)cc1 [Tolazamide],Z Score,[2]; [11],1.431
same,Z score,[2]; [12],1.431
same,Activity,[2]; [13],no
"CCCN1CCOC2c3cc(O)ccc3OCC21.Cl (racemic) [(±)-PD 128,907 hydrochloride]",Z score,[2]; [7],1.164
same,Activity,[2]; [14],no
O=C(O)[C@@H]1CCN1 [L-azetidine-2-carboxylic acid],Z Score,[2],0.9837
same,Z score,[2]; [7],0.984
same,Activity,[2]; [14],no
c1ccc(C2CC2)c(OCC2=NCCN2)c1 [Cirazoline hydrochloride],Z Score,[2]; [11],0.4239
same,Z score,[2]; [15],0.424
same,Activity,[2]; [16],no
CCN(CC)c1ncnc2c1ncn2[C@@H]1O[C@H](COP(=O)([O-])OP(=O)([O-])C(Br)(Br)P(=O)([O-])O)[C@@H](O)[C@H]1O.[Na+].[Na+].[Na+] [ARL 67156 trisodium salt],Z Score,[2],−0.168
same,Z score,[2]; [12],−0.168
same,Activity,[2]; [13],no
CN1CCc2cc(Cl)c(O)cc2[C@@H](c2ccccc2)C1.Cl [R(+)-SCH-23390 hydrochloride],Z Score,[2]; [11],1.375
same,Z score,[2]; [15],1.375
same,Activity,[2]; [16],no
NC/C=C/C(=O)O [(E)-4-amino-2-butenoic acid],Z Score,[2]; [6],−2.149
same,Z score,[2]; [12],−2.149
same,Activity,[2]; [13],no
CCc1cc(Cl)c(OC)c(C(=O)NC[C@@H]2CCCN2CC)c1O.Cl [S-(−)-Eticlopride hydrohloride],Z score,[2]; [7],−5.158
same,Activity,[2]; yes/no: significantly inhibited neurosphere proliferation (P<0.01) in the primary screen,yes
O=C1NCC2(CCN(CCc3ccccc3)CC2)O1 [Fenspiride hydrochloride],Z Score,[2]; [17],−0.5762
same,Z score,[2]; [7],−0.576
same,Activity,[2]; [16],no
C#CCN(C)Cc1ccccc1 [Pargyline hydrochloride],Z Score,[2]; [17],−0.2794
same,Z score,[2]; [7],−0.279
same,Activity,[2]; [14],no
O=C(O)c1ccccc1Nc1cccc(OCc2ccc3ccccc3n2)c1 [SR 2640],Z Score,[2],−1.548
same,Z score,[2]; [7],−1.548
same,Activity,[2]; [14],no
NC(=O)c1ccc(OCC(O)CN2CC=C(c3ccc(F)cc3)CC2)cc1 (stereo not shown) [Ro 8-4304],Z Score,[2],−2.188
same,Z score,[2]; [7],−2.188
same,Activity,[2]; [14],no
